Legend:
human adipocytes = experiment: human adipocyte lipolysis assay (glycerol released into the medium); assay type: cell-based; details: for glycerol release / lipolytic activity in human adipocytes (FIG. 2): fully differentiated human adipocytes, 1 μM
Protocol: Two weeks after the initiation of differentiation, differentiated cells appeared rounded with large lipid droplets apparent in the cytoplasm, and were thereby considered mature adipocytes. At this time, the differentiation medium was washed out. Two days after washing out the differentiation agents, the mature adipocytes were treated with different concentrations of PGI2 receptor agonist compounds cicaprost, beraprost, FK-788 and selexipag. Lipolytic activity was assessed by the measurement of glycerol released into the medium from triglyceride breakdown. In this experiment, lipolysis was measured using a human adipocyte lipolysis assay kit (ZenBio, Inc., Research Triangle Park, N.C., Cat #LIP-1-SPF).
The data are provided in FIG. 1 and are expressed as fold induction over a buffer control (mature adipocytes treated with vehicle buffer in the absence of any agonist). Each data point on the graph in FIG. 1 represents the mean±SEM of 2 to 8 experiments.
The in vitro human adipocytes lipolysis results for cicaprost and FK-788 from Example 1 at the 1 μM concentration were compared to lipolysis induced by those compounds in ex vivo mouse adipocytes, which are commonly used to detect lipolytic activity.

[1] = tested on: fat in the triceps region; experiment: In vivo human study, topical ointment, body fat calipers in triceps region; details: human subjects; topical ointment 0.003%, 0.03% or 0.3% daily; 6 months
From the text: The following experiment describes a randomized, double-blind study in human subjects to test whether compounds according to the present disclosure, including topical FK-788, reduces fat in the body of individuals.
Multiple human subjects (both male and female), for example, with body mass indices of 30 or more but otherwise healthy, are entered into a randomized double-blind study. Either the left or the right arm is randomized to receive topical FK-788; the other arm receives vehicle only. FK-788 is supplied in a petrolatum-based ointment (the vehicle) at a final concentration of 0%, 0.003%, 0.03% or 0.3%. Ointment containers are unlabeled as to the presence or concentration of FK-788.
Each day, subjects apply a thin film of ointment to the skin over the respective triceps while wearing new, clean surgical gloves. Subjects are instructed to refrain from washing the treated area for at least 8 hours and are instructed to refrain from wearing tight clothing or occlusive dressings that will come into contact with the treated area.
Body fat calipers are used to measure fat in the triceps region bilaterally on a weekly basis. The study continues for 6 months. […] As a result, this contemplated outcome will show, in vivo, that compounds according to the present invention, including FK-788, can reduce fat.

[2] = fold induction over buffer control

SMILES | glycerol release / lipolytic activity in human adipocytes (FIG. 2) (human adipocytes; [2]) | fat in treated arm compared to vehicle-treated arm [1] | relative potency among the PGI2 receptor agonists tested (human adipocytes; human mature adipocytes, cicaprost, beraprost, FK-788 and selexipag compared) | increase in glycerol production (human adipocytes; human mature adipocytes, concentration of about 0.1 μM, fold induction over buffer control)
O=C(O)COc1cccc2c1CC[C@](O)(COC(=O)N(c1ccccc1)c1ccccc1)C2 [FK-788, 2-[[(6R)-6-[di(phenyl)carbamoyloxymethyl]-6-hydroxy-7,8-dihydro-5H-naphthalen-1-yl]oxy]acetic acid] | increased glycerol release | lower fat |  | 
CCC#CC[C@H](C)[C@H](O)C#C[C@@H]1[C@H]2C/C(=C/COCC(=O)O)C[C@H]2C[C@H]1O [cicaprost, 2-[(2E)-2-[(3aS,4S,5R,6aS)-5-hydroxy-4-[(3S,4S)-3-hydroxy-4-methylnona-1,-6-diynyl]-3,3a,4,5,6,6a-hexahydro-1H-pentalen-2-ylidene]ethoxy]acetic acid] | increased glycerol release |  | most potent agonist | approximately 3 fold

— patent US20200171026A1, “PROSTACYCLIN RECEPTOR AGONISTS FOR REDUCTION OF BODY FAT” (Allergan, Inc., priority 2017, published 2020)
